Target: T1, leucine aminopeptidase (Sus scrofa, UniProt P15145)
T1 construct: purchased Sigma L0632
Test: Enzyme cleavage of 4′ blocking group by leucine aminopeptidase
Assay type: biochemical
Conditions: 0.25 units leucine aminopeptidase, 37° C., 47 mM sodium phosphate pH 7.2, 3.3% methanol
Experimental: 1 mg of 4′-C-(N-Leucylaminomethyl)thymidine (21) is incubated at 37° C. in 47 mM sodium phosphate pH 7.2 with 3.3% methanol and 0.25 units leucine aminopeptidase (Sigma L0632), to a final volume of 200 ul.
The products resulting from a), b) or c) above are analysed by thin layer chromatography using reverse phase plates with 10% acetonitrile in water or by electrospray mass spectrometry. Successful cleavage reactions yield nucleosides running concurrently with 4′-aminomethylthymidine which is used as a standard.

T1 sequence (P15145 whole entry): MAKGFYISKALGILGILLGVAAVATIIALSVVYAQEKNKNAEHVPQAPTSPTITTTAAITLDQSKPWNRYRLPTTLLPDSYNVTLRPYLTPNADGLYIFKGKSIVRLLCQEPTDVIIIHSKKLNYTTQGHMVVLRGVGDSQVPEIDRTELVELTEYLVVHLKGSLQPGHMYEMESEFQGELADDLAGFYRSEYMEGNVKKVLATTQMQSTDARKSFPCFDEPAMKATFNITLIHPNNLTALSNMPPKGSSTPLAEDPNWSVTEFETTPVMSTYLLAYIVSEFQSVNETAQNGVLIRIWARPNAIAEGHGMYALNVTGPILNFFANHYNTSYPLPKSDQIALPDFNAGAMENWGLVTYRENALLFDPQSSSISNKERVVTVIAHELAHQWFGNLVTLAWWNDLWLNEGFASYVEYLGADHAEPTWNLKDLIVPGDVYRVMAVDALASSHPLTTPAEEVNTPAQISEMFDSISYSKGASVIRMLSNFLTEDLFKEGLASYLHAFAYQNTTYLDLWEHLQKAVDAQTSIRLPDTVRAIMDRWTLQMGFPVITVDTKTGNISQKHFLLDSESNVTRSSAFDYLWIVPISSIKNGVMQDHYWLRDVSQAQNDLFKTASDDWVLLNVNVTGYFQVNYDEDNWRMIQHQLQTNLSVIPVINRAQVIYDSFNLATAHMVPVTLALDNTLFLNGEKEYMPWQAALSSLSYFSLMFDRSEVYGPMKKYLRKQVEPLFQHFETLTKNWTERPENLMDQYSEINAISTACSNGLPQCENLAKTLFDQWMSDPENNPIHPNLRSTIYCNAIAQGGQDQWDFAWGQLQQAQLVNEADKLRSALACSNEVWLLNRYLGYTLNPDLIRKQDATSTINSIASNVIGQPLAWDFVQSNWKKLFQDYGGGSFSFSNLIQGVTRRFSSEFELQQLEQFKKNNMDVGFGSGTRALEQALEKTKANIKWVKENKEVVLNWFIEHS

SMILES: Cc1cn([C@H]2C[C@H](O)[C@](CO)(CNC(=O)[C@@H](N)CC(C)C)O2)c(=O)[nH]c1=O [compound (21), 4′-C-(N-Leucylaminomethyl)thymidine]
- cleavage of 4′ blocking group (mass spectrometric detection of daughter ion mass 242): enzyme induced cleavage of the amino acid

Reference: US7078499B2, “Nucleotide analogues comprising a reporter moiety and a polymerase enzyme blocking moiety” (GE Healthcare UK Limited, priority 2000, dated 2006)
